Source: US12544431B2, “Peptides for the treatment of cancer and/or metastasis” (BCN PEPTIDES, S.A., priority 2019, dated 2026)
Entries after “also recorded” stand apart in the source; their conditions may differ. Marks after values point to notes of the source that are not given here. Where a SMILES comes first, the peptide text is derived from it. [ ]: non-standard residue; d: D form. Phe(2,4,6-Me3) = Cc1cc(C)c(C[C@H](N)C(=O)O)c(C)c1; pGlu = O=C1CC[C@@H](C(=O)O)N1

Legend:
[1] = In vitro stability, half-life in human plasma; format: in vitro ADME; settings: 90% human plasma, 37° C., RP-HPLC; read-out: t½ (hours) in human plasma (converted)
Protocol: The peptides and peptide dimer synthesized and prepared in accordance with Example 1 were dissolved in water at a concentration of 6 mg/mL and warmed up to 37° C.
Human plasma was obtained as a lyophilized solid (K3 EDTA Plasma, BBI Solutions, code S112-1), reconstituted with sterile 0.9% sodium chloride solution and stored at −20° C. Human plasma was thawed and incubated at 37° C. before use.
The peptides and peptide dimer were incubated in 90% human plasma at 37° C. for different times and then precipitated with two volume equivalents of methanol. The samples were cooled in an acetone-carbon dioxide bath for a few seconds and centrifuged for 12 minutes at 4° C. at approximately 10,000 rpm. The supernatant was filtered with a 0.45 μm PVDF filter and analyzed in triplicate by RP-HPLC using an isocratic method (Eluent A=0.1% TFA in water; Eluent B=0.07% TFA in ACN, Column=Kromasil C8, 100 Å, 5 μm, 250×4.6 mm, Flow=1 mL/min, Wavelength: 220 nm, Injection volume=20 μL, Temperature=60° C.). The disappearance of the compound was determined in relation to the area of the initial time to calculate its half-life.

[2] = system: RH30 rhabdomyosarcoma cells; experiment: Matrigel-coated transwell invasion assay, RH30 cells; format: cell-based; settings: for % Invasiveness RH30: % invasive cells vs non-treated control
Protocol: (§1) 10^5 RH30 or RD cells were plated in the upper chamber of a Matrigel-coated transwell (Corning) in 0.1 mL medium without FBS. Cells were previously incubated with different concentrations (0 nM, 100 nM, 200 nM, 500 nM and 1000 nM) of the peptides and peptide dimer for 48 hours, being also present in the medium during the cell invasion assay. In the lower chamber, 0.6 mL of medium with FBS was added. Cells were incubated at 37° ° C. for 24 hours.
(§2) After that, cells were fixed with 4% paraformaldehyde (Sigma) for 10 minutes, followed by washing with PBS. After removal of the Matrigel and remaining cells from the upper face of the membrane with a cotton swab, the cells present on the lower face were stained with a Hoechst dilution (Sigma) and were counted (5 fields for each well) with an inverted fluorescence microscope Nikon with a 10× objective. All experiments were made in triplicate. In Table 6 the % Invasiveness represents the mean percentage of invasive cells with respect to their controls.

[3] = system: RD rhabdomyosarcoma cells; experiment: Matrigel-coated transwell invasion assay, RD cells; format: cell-based; settings: % invasive cells vs non-treated control
Protocol: as §1, §2

[4] = system: CHLA-90 neuroblastoma cells; experiment: Transwell invasion assay, CHLA-90 cells; format: cell-based
Protocol: as §1, §2
(§3) The transwell assay with CHLA-90 and BE(2)-C cell lines was done following the same conditions detailed for determining the % of invasiveness in rhabdomyosarcoma cells.
(§4) The transwell assay with neuroblastoma cell lines (CHLA-90, BE(2)-C and SK—N-BE(2)-C)) and breast cancer cell lines (MDA-MB-231 and MDA-MB-468) was performed at the same conditions detailed for determining the % of invasiveness in rhabdomyosarcoma cells.

[5] = system: BE(2)-C neuroblastoma cells; experiment: Transwell invasion assay, BE(2)-C cells; format: cell-based
Protocol: as §1, §2, §3, §4

[6] = system: SK-N-BE(2)-C neuroblastoma cells; experiment: Transwell invasion assay, SK-N-BE(2)-C cells; format: cell-based
Protocol: as §1, §2, §4

[7] = system: MDA-MB-231 breast cancer cells; experiment: Transwell invasion assay, MDA-MB-231 cells; format: cell-based
Protocol: as §1, §2, §4

[8] = system: MDA-MB-468 breast cancer cells; experiment: Transwell invasion assay, MDA-MB-468 cells; format: cell-based
Protocol: as §1, §2, §4

[9] = system: RD rhabdomyosarcoma cells; experiment: Rhabdomyosarcoma metastatic mice model (RD cells i.v. in tail vein); format: in vivo, SCID/Beige mice; settings: for event-free survival vs vehicle group (in words): 27-week study; for Absence of metastases, number of mice / Absence of metastases, percentage of mice / Presence of metastases (%), percentage of mice / Presence of metastases, number of mice: 27 weeks; for body weight, treated vs vehicle-treated mice (in words): along the 27-week study
Protocol: SCID/Beige female mice aged of 5 weeks were administered subcutaneously (s.c.) at day −1 with the first dose of treatment i.e. the vehicle (PBS, Phosphate buffered saline) or the peptides. On day 0, mice were injected intravenously (i.v.) in the tail vein with 2×10^6 RD rhabdomyosarcoma cells.
Body weight was evaluated twice per week for 27 weeks. Overall survival and event-free survival were determined. At necropsy, the total number of metastases were quantified and the number of metastases per mice and their localization were also reported.

[10] = system: BE(2)-C neuroblastoma cells; experiment: Neuroblastoma metastatic mice model (BE(2)-C cells i.v. in tail vein); format: in vivo, SCID/Beige mice; settings: for Absence of metastases, number of mice / Absence of metastases, percentage of mice / Presence of metastases (%), percentage of mice / Presence of metastases, number of mice: 13 weeks; for event-free survival, percentage of mice / event-free survival, number of mice: 13-week study; for event-free survival, number of mice: of 9 mice
Protocol: SCID/Beige female mice aged 5 weeks were administered subcutaneously (s.c.) at day −1 with the first dose of treatment, this is the vehicle (PBS) or the peptide SEQ ID NO: 7-NH2 at doses of 1 mg/kg and 2 mg/kg. On day 0, mice were injected intravenously (i.v.) in the tail vein with 2×10^5 BE(2)-C neuroblastoma cells. Afterwards, mice were treated s.c. three times per week (every 2-3 days) for 13 weeks with vehicle PBS (n=8) and SEQ ID NO: 7—NH2 1 mg/kg (n=9) and 2 mg/kg (n=9).

[11] = 0.5 mg/kg s.c. three times per week
[12] = 2 mg/kg s.c. three times per week
[13] = 1 mg/kg s.c. three times per week

## CSCC[C@H](NC(=O)[C@H](CO)NC(=O)[C@H](CC(N)=O)NC(=O)[C@H](CO)NC(=O)[C@H](CO)NC(=O)[C@H](CC(=O)O)NC(=O)[C@H](CCCNC(=N)N)NC(=O)[C@H](CCCCN)NC(=O)[C@@H]1CCC(=O)N1)C(=O)N[C@@H](CC(=O)O)C(=O)N[C@@H](CC(C)C)C(=O)N1CCC[C@H]1C(=O)N[C@@H](CCC(=O)O)C(=O)N[C@@H](Cc1c(C)cc(C)cc1C)C(=O)N[C@@H](CCCCN)C(N)=O [SEQ ID NO: 7-NH2, Pyr-Lys-Arg-Asp-Ser-Ser-Asn-Ser-Met-Asp-Leu-Pro-Glu-Msa-Lys-NH2] ([pGlu]KRDSSNSMDLPE[Phe(2,4,6-Me3)]K-NH2)
[1]
  half-life at 0.6 mg/mL: 40.5 h
[2]; 100 nM peptide
  % Invasiveness RH30: 121.38%
[2]; 200 nM peptide
  % Invasiveness RH30: 77.38%
[2]; 500 nM peptide
  % Invasiveness RH30: 65.59%
[2]; 1000 nM peptide
  % Invasiveness RH30: 63.23%
[2]; concentration not stated (100-1000 nM tested)
  effect on % invasiveness of RH30 cell line (in words): diminishing % invasiveness without reaching significance
[3]; 100 nM peptide
  % Invasiveness RD: 30.82* %
[3]; 100 nM peptide, listed as SEQ ID NO: 7—NH2
  % Invasiveness RD: below 50%
[3]; 200 nM peptide
  % Invasiveness RD: 22.94* %
[3]; 500 nM peptide
  % Invasiveness RD: 17.60* %
[3]; 1000 nM peptide
  % Invasiveness RD: 19.68* %
[4]; 100 nM peptide
  % Invasiveness CHLA-90: 94.31%
[4]; 200 nM peptide
  % Invasiveness CHLA-90: 52.37%
[4]; 500 nM peptide
  % Invasiveness CHLA-90: 38.94%
[4]; 1000 nM peptide
  % Invasiveness CHLA-90: 20.37* %
[4]; concentration not given
  effect on CHLA-90 cell invasiveness (in words): significant reduction in cell invasiveness
[5]; 100 nM peptide
  % Invasiveness BE(2)-C: 95.15%
[5]; 200 nM peptide
  % Invasiveness BE(2)-C: 60.70* %
[5]; 500 nM peptide
  % Invasiveness BE(2)-C: 56.72* %
[5]; 1000 nM peptide
  % Invasiveness BE(2)-C: 33.21* %
[5]; concentration not given
  effect on BE(2)-C cell invasiveness (in words): significant reduction in cell invasiveness
[6]; 100 nM peptide
  % Invasiveness SK-N-BE(2)-C: 84.35%
[6]; 200 nM peptide
  % Invasiveness SK-N-BE(2)-C: 91.84%
[6]; 500 nM peptide
  % Invasiveness SK-N-BE(2)-C: 73.31* %
[6]; 500 nM peptide, listed as SEQ ID NO: 7—NH2
  % Invasiveness SK-N-BE(2)-C: efficacious in inhibiting invasiveness; also recorded: significant reduction
[6]; 1000 nM peptide
  % Invasiveness SK-N-BE(2)-C: 52.70* %
[7]; 100 nM peptide
  % Invasiveness MDA-MB-231: 111.82%
[7]; 200 nM peptide
  % Invasiveness MDA-MB-231: 109.71%
[7]; 500 nM peptide
  % Invasiveness MDA-MB-231: 99.97%
[7]; 1000 nM peptide (highest treatment dose)
  % Invasiveness MDA-MB-231: 53.69%
[7]; 1000 nM peptide (highest treatment dose), listed as SEQ ID NO: 7—NH2
  % Invasiveness MDA-MB-231: moderate reduction
[8]; 100 nM peptide
  % Invasiveness MDA-MB-468: 96.71%
[8]; 200 nM peptide
  % Invasiveness MDA-MB-468: 57.65%
[8]; 500 nM peptide
  % Invasiveness MDA-MB-468: 54.53* %
[8]; 1000 nM peptide
  % Invasiveness MDA-MB-468: 48.39* %
[8]; under treatment, concentration not given
  effect on MDA-MB-468 invasiveness (in words): clear reduction of invasiveness
[9]; 0.5 mg/kg (lower dose)
  event-free survival vs vehicle group (in words): did not show statistically significant difference; also recorded: did not show a significant effect
[9]; [11]
  Absence of metastases, number of mice: 1
  Absence of metastases, percentage of mice: 17%
  Presence of metastases (%), percentage of mice: 83%
  Presence of metastases, number of mice: 5
[9]; 0.5 mg/kg
  body weight, treated vs vehicle-treated mice (in words): vehicle-treated mice showed a statistically significant lower body weight
[9]; 0.5 mg/kg, vs PBS-treated mice
  reduction in metastases formation: ~15%
[9]; 2 mg/kg (higher dose), at necropsy
  number of metastases per mouse vs vehicle (in words): statistically reduced the formation of metastases per mouse; also recorded: efficacious in the reduction of the number of metastases
[9]; [12]
  Absence of metastases, number of mice: 5
  Absence of metastases, percentage of mice: 71%
  Presence of metastases (%), percentage of mice: 29%
  Presence of metastases, number of mice: 2
[9]; 2 mg/kg, Log-rank
  event-free survival vs vehicle group (in words): significant difference
[9]; 2 mg/kg
  body weight, treated vs vehicle-treated mice (in words): vehicle-treated mice showed a statistically significant lower body weight
[10]; [13]
  Absence of metastases, number of mice: 2
  Absence of metastases, percentage of mice: 22%
  Presence of metastases (%), percentage of mice: 78%
  Presence of metastases, number of mice: 7
[10]; 1 mg/kg
  event-free survival, percentage of mice: 22%
  event-free survival, number of mice: 2
[10]; [12]
  Absence of metastases, number of mice: 5
  Absence of metastases, percentage of mice: 56%
  Presence of metastases (%), percentage of mice: 44%
  Presence of metastases, number of mice: 4
[10]; 2 mg/kg
  event-free survival, percentage of mice: 56%
  event-free survival, number of mice: 5
